Measurements as given in patent publication US10202360B2 (CELGENE QUANTICEL RESEARCH, INC., priority 2016, dated 2019).

Legend:
CREBBP = CREBBP (Homo sapiens (Human), UniProt Q92793); assay: In vitro enzyme inhibition assay - CREBBP inhibition (AlphaScreen, biotinylated H4-tetraacetyl peptide); assay type: binding
In short: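 His-tagged CREBBP expressed in E. coli (50 nM final) incubated with biotinylated H4K5/8/12/16(Ac) peptide (20 nM final) in HEPES pH 7.3 buffer, 0.4% DMSO, 20 min at room temperature.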

BRD4 = BRD4 (Homo sapiens (Human), UniProt O60885); assay: In vitro enzyme inhibition assay - BRD4 inhibition (as described in U.S. Pat. No. 9,034,900); assay type: binding; conditions: Table 29; BRD4 BD1
[1] = Table 28, AlphaScreen, H4-tetraacetyl peptide

CREBBP, sequence (Q92793 1081-1197): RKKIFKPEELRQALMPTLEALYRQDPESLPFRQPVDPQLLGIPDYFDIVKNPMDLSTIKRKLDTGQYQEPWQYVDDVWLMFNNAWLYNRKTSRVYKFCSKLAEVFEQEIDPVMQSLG

SMILES | IC50 (CREBBP; Table 29) [nM] | IC50 (BRD4) [nM] | IC50 (CREBBP; [1]) [nM]
CCS(=O)(=O)Nc1ncc(Oc2ccc(F)cc2F)c(-c2cc(C)c(=O)n(CC3CC3)c2)n1 | > 5000 | < 500 | –
CCCS(=O)(=O)Nc1cc(-c2cc(C)c(=O)n(C3CC3)c2)nc(Oc2c(C)cccc2C)n1 [Example 54, Propane-1-sulfonic acid [6-(1-cyclopropyl-5-methyl-6-oxo-1,6-dihydro-pyridin-3-yl)-2-(2,6-dimethyl-phenoxy)-pyrimidin-4-yl]-amide] | – | – | 500 to 5000
CCC(F)(F)S(=O)(=O)Nc1cc(-c2ccc(=O)n(C)c2)nc(Oc2c(C)cccc2F)n1 [Example 166, 1,1-Difluoro-propane-1-sulfonic acid [2-(2-fluoro-6-methyl-phenoxy)-6-(1-methyl-6-oxo-1,6-dihydro-pyridin-3-yl)-pyrimidin-4-yl]-amide] | – | – | < 500
Cn1cc(-c2cc3nc(n2)Oc2cccc(c2)OCC=CCCS(=O)(=O)N3)ccc1=O [Example 356, 5-(10,10-dioxido-2,4-dioxa-10-thia-11-aza-1(2,4)-pyrimidina-3(1,3)-benzenacycloundecaphan-6-en-16-yl)-1-methylpyridin-2(1H)-one] | – | – | < 500
CCCS(=O)(=O)Nc1cc(Oc2c(C)cc(Cl)cc2Cl)nc(-c2cc(C)c(=O)n(C)c2)n1 [Example 60, Propane-1-sulfonic acid [6-(2,4-dichloro-6-methyl-phenoxy)-2-(1,5-dimethyl-6-oxo-1,6-dihydro-pyridin-3-yl)-pyrimidin-4-yl]-amide] | – | – | < 500
CCCCS(=O)(=O)Nc1cc(-c2ccc(=O)n(C)c2)nc(OC2CCCCC2)n1 [Example 244, Butane-1-sulfonic acid [2-cyclohexyloxy-6-(1-methyl-6-oxo-1,6-dihydro-pyridin-3-yl)-pyrimidin-4-yl]-amide] | – | – | < 500
CCCS(=O)(=O)Nc1cc(-c2ccc(=O)n(C)c2)nc(OC2CCOCC2)n1 [Example 354, N-(6-(1-methyl-6-oxo-1,6-dihydropyridin-3-yl)-2-((tetrahydro-2H-pyran-4-yl)oxy)pyrimidin-4-yl)propane-1-sulfonamide] | – | – | < 500
CC(C)Oc1nc(NS(=O)(=O)c2ccccc2)cc(-c2ccc(=O)n(C)c2)n1 [Example 355, N-(2-isopropoxy-6-(1-methyl-6-oxo-1,6-dihydropyridin-3-yl)pyrimidin-4-yl)benzenesulfonamide] | – | – | < 500
Cn1cc(-c2cc3nc(n2)Oc2cccc(c2)OCCCCCCS(=O)(=O)N3)ccc1=O [Example 359, 5-(11,11-dioxido-2,4-dioxa-11-thia-12-aza-1(2,4)-pyrimidina-3(1,3)-benzenacyclododecaphane-1^6-yl)-1-methylpyridin-2(1H)-one] | – | – | < 500
CCS(=O)(=O)Nc1nc(Oc2c(C)cccc2C)nc(-c2cc(C)c(=O)n(C)c2)c1C [Example 160, Ethanesulfonic acid [6-(1,5-dimethyl-6-oxo-1,6-dihydro-pyridin-3-yl)-2-(2,6-dimethyl-phenoxy)-5-methyl-pyrimidin-4-yl]-amide] | – | – | < 500
Cc1cccc(Cl)c1Oc1nc(NCCC(C)C)cc(-c2ccc(=O)n(C)c2)n1 [Example 315, 5-[2-(2-Chloro-6-methyl-phenoxy)-6-(3-methyl-butylamino)-pyrimidin-4-yl]-1-methyl-1H-pyridin-2-one] | – | – | < 500
Cn1cc(-c2cc(NS(=O)(=O)CCCF)nc(Oc3c(F)cccc3Cl)n2)ccc1=O [Example 148, N-(2-(2-chloro-6-fluorophenoxy)-6-(1-methyl-6-oxo-1,6-dihydropyridin-3 yl)pyrimidin-4-yl)-3-fluoropropane-1-sulfonamide] | – | – | < 500
CCCS(=O)(=O)Nc1nc(Oc2c(F)cccc2Cl)nc(-c2ccc(=O)n(C)c2)n1 [Example 181, Propane-1-sulfonic acid [4-(2-chloro-6-fluoro-phenoxy)-6-(1-methyl-6-oxo-1,6-dihydro-pyridin-3-yl)-[1,3,5]triazin-2-yl]-amide] | – | – | < 500
CCCCS(=O)(=O)Nc1cc(-c2ccc(=O)n(C)c2)nc(Oc2c(C)nn(C)c2C)n1 [Example 124, Butane-1-sulfonic acid [6-(1-methyl-6-oxo-1,6-dihydro-pyridin-3-yl)-2-(1,3,5-trimethyl-1H-pyrazol-4-yloxy)-pyrimidin-4-yl]-amide] | – | – | < 500
CCS(=O)(=O)Nc1cc(-c2ccc(=O)n(C)c2)nc(-c2cc(C)ccc2OC)n1 [Example 195, Ethanesulfonic acid [2-(2-methoxy-5-methyl-phenyl)-6-(1-methyl-6-oxo-1,6-dihydro-pyridin-3-yl)-pyrimidin-4-yl]-amide] | – | – | 500 to 5000
CC[C@@H](C)S(=O)(=O)Nc1cc(-c2ccc(=O)n(C)c2)nc(Oc2c(F)cccc2F)n1 [Example 230, (R)-N-(2-(2,6-difluorophenoxy)-6-(1-methyl-6-oxo-1,6-dihydropyridin-3-yl)pyrimidin-4-yl)butane-2-sulfonamide] | – | – | < 500
Cc1cccc(F)c1Oc1nc(NC2CCCC2)cc(-c2ccc(=O)n(C)c2)n1 [Example 285, 5-(6-(cyclopentylamino)-2-(2-fluoro-6-methylphenoxy)pyrimidin-4-yl)-1-methylpyridin-2(1H)-one] | – | – | < 500

Next, values leading:

IC50 (CREBBP; Table 29) [nM] | IC50 (BRD4) [nM] | IC50 (CREBBP; [1]) [nM] | SMILES
< 500 | 500 to 5000 | < 500 | Cc1cc(-c2cc(NS(=O)(=O)C3CCCC3)nc(Oc3ccc(F)cc3F)n2)cn(C)c1=O [Example 66, N-(2-(2,4-difluorophenoxy)-6-(1,5-dimethyl-6-oxo-1,6-dihydropyridin-3-yl)pyrimidin-4-yl)cyclopentanesulfonamide]
< 500 | > 5000 | < 500 | COc1cccc(C#N)c1Oc1nc(NS(=O)(=O)C(C)C)cc(-c2cc(C)c(=O)n(C)c2)n1 [Example 11, Propane-2-sulfonic acid [2-(2-cyano-6-methoxy-phenoxy)-6-(1,5-dimethyl-6-oxo-1,6-dihydro-pyridin-3-yl)-pyrimidin-4-yl]-amide]
– | – | > 5000 | Cc1cc(-c2cc(NS(=O)(=O)C(C)C)nc(Oc3ccc(F)cc3F)n2)cn(CC(C)C)c1=O [Example 48, Propane-2-sulfonic acid [2-(2,4-difluoro-phenoxy)-6-(1-isobutyl-5-methyl-6-oxo-1,6-dihydro-pyridin-3-yl)-pyrimidin-4-yl]-amide]
– | – | < 500 | Cc1cc(-c2cc(NS(=O)(=O)C(C)C)nc(OC3CCCCC3)n2)cn(C)c1=O [Example 250, Propane-2-sulfonic acid [2-cyclohexyloxy-6-(1,5-dimethyl-6-oxo-1,6-dihydro-pyridin-3-yl)-pyrimidin-4-yl]-amide]
– | – | < 500 | CCC(C)S(=O)(=O)Nc1cc(-c2ccc(=O)n(C)c2)nc(Oc2c(C)cccc2F)n1 (stereo not shown) [Example 137, Butane-2-sulfonic acid [2-(2-fluoro-6-methyl-phenoxy)-6-(1-methyl-6-oxo-1,6-dihydro-pyridin-3-yl)-pyrimidin-4-yl]-amide]
– | – | > 5000 | Cc1cc(-c2cc(NS(=O)(=O)C(C)C)nc(Oc3ccc(F)cc3F)n2)cn(CC2CCC2)c1=O [Example 50, Propane-2-sulfonic acid [6-(1-cyclobutylmethyl-5-methyl-6-oxo-1,6-dihydro-pyridin-3-yl)-2-(2,4-difluoro-phenoxy)-pyrimidin-4-yl]-amide]
– | – | < 500 | CCC(C)S(=O)(=O)Nc1cc(-c2ccc(=O)n(C)c2)nc(Oc2c(C)ccc(F)c2F)n1 (stereo not shown) [Example 349, N-(2-(2,3-difluoro-6-methylphenoxy)-6-(1-methyl-6-oxo-1,6-dihydropyridin-3-yl)pyrimidin-4-yl)butane-2-sulfonamide]
– | – | < 500 | Cc1cc(-c2cc(NS(=O)(=O)C(C)C)nc(Nc3ccc(F)cc3F)n2)cn(C)c1=O [Example 91, N-(2-((2,4-difluorophenyl)amino)-6-(1,5-dimethyl-6-oxo-1,6-dihydropyridin-3-yl)pyrimidin-4-yl)propane-2-sulfonamide]
– | – | < 500 | Cc1c(NS(=O)(=O)C(C)C)nc(Oc2ccc(F)cc2F)nc1-c1cc(C)c(=O)n(C)c1 [Example 165, Propane-2-sulfonic acid [2-(2,4-difluoro-phenoxy)-6-(1,5-dimethyl-6-oxo-1,6-dihydro-pyridin-3-yl)-5-methyl-pyrimidin-4-yl]-amide]
– | – | < 500 | CC[C@H](C)S(=O)(=O)Nc1cc(-c2ccc(=O)n(C)c2)nc(Oc2c(F)ccc(C)c2F)n1 [Example 225, (S)-N-(2-(2,6-difluoro-3-methylphenoxy)-6-(1-methyl-6-oxo-1,6-dihydropyridin-3-yl)pyrimidin-4-yl)butane-2-sulfonamide]
– | – | 500 to 5000 | CC(=O)OCCn1cc(-c2cc(NS(=O)(=O)C(C)C)nc(Oc3ccc(F)cc3F)n2)cc(C)c1=O [Example 51, Acetic acid 2-{5-[2-(2,4-difluoro-phenoxy)-6-(propane-2-sulfonylamino)-pyrimidin-4-yl]-3-methyl-2-oxo-2H-pyridin-1-yl}-ethyl ester]
– | – | < 500 | CCCCS(=O)(=O)Nc1cc(-c2cc(C)c(=O)n(C)c2)nc(Oc2ccccc2Cl)n1 [Example 16, Butane-1-sulfonic acid [2-(2-chloro-phenoxy)-6-(1,5-dimethyl-6-oxo-1,6-dihydro-pyridin-3-yl)-pyrimidin-4-yl]-amide]
– | – | < 500 | CCCCS(=O)(=O)Nc1cc(-c2cc(C)c(=O)n(C)c2)nc(Oc2c(C)cc(Cl)cc2Cl)n1 [Example 28, Butane-1-sulfonic acid [2-(2,4-dichloro-6-methyl-phenoxy)-6-(1,5-dimethyl-6-oxo-1,6-dihydro-pyridin-3-yl)-pyrimidin-4-yl]-amide]
– | – | < 500 | CCCS(=O)(=O)Nc1cc(-c2cc(C)c(=O)n(C)c2)nc(Oc2c(C)cc(Cl)cc2Cl)n1 [Example 27, Propane-1-sulfonic acid [2-(2,4-dichloro-6-methyl-phenoxy)-6-(1,5-dimethyl-6-oxo-1,6-dihydro-pyridin-3-yl)-pyrimidin-4-yl]-amide]
– | – | < 500 | Cc1cccc(F)c1Oc1nc(NS(=O)(=O)C(C)C)nc(-c2cc(C)c(=O)n(C)c2)n1 [Example 172, Propane-2-sulfonic acid [4-(1,5-dimethyl-6-oxo-1,6-dihydro-pyridin-3-yl)-6-(2-fluoro-6-methyl-phenoxy)-[1,3,5]triazin-2-yl]-amide]
